Test results as given in patent US12662475B2, “Difluorocyclohexyl derivatives as IL-17 modulators” (UCB BIOPHARMA SRL, priority 2020, dated 2026).
pIC50: −log10 of the molar value.

What was measured:
[1] = test system: IL-17 induced IL-6 release from human dermal fibroblasts; assay: Inhibition of IL-17A induced IL-6 release from dermal fibroblast cell line (HDF cell line assay); assay type: cell-based
Description: Inhibition of IL-17A Induced IL-6 Release from Dermal Fibroblast Cell Line
The purpose of this assay is to test the neutralising ability to IL-17 proteins, in a human primary cell system.
The resultant IL-6 response was then measured using a homogenous time-resolved FRET kit from Cisbio. The kit utilises two monoclonal antibodies, one labelled with Eu-Cryptate (Donor) and the second with d2 or XL665 (Acceptor).
The ability of a compound to inhibit IL-17 induced IL-6 release from human dermal fibroblasts is measured in this assay.
The TrypLE was neutralised using complete medium (45 mL) and the cells were centrifuged at 300×g for 3 minutes. […] The cells were left for a minimum of three hours, at 37° C./5% CO2, to adhere to the plate.
10 μL from the aqueous dilution plate was transferred to the reagent plate containing 30 μL of the diluted cytokines, to give a 2.5% DMSO solution. The compounds were incubated with the cytokine mixtures for 1 h or 5 h at 37° C. After the incubation, 10 μL was transferred to the assay plate, to give a […] solution, then incubated for 18-20 h at 37° C./5% CO2.

[2] = target: T1, interaction between IL-17A and soluble IL-17 Receptor A (IL-17RA) (Homo sapiens, UniProt Q16552); assay: IL-17 FRET assay; details: IL-17A binding to IL-17RA
T1 construct: made in house; host or cells: IL-17A-Fc: CHO SXE cells; IL-17RA: Expi HEK293 cells
T1 sequence (Q16552 24-155): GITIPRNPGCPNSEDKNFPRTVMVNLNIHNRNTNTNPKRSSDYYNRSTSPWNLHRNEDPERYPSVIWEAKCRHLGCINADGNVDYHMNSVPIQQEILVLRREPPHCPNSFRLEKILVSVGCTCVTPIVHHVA
Description: The purpose of this assay is to test the ability of compounds to disrupt the interaction between IL-17A and soluble IL-17 Receptor A (IL-17RA). The ability of a compound to inhibit IL-17A binding to IL-17RA is measured in this assay.
An IL-17AA-TEV-Human Fc construct was expressed in a CHO SXE cell system and purified by protein A chromatography and size exclusion. The protein was labelled with an amine reactive AlexaFluor 647 dye (Thermo Fisher #A20006), as per manufacturer's instruction.
Soluble IL-17RA (33-317)-HKH-TEV-Fc was expressed in an Expi HEK293 cell system and purified by protein A chromatography and size exclusion. The Fc tag was cleaved by TEV, producing IL-17RA (33-317)-HKH, and the protein was labelled with amine reactive terbium (Thermo Fisher #PV3581).
In assay buffer [Dulbecco's PBS (Sigma #14190-094), 0.05% P20 (Thermo Scientific #28320), 1 mg/mL BSA (Sigma #A2153-500G)] the following solutions were prepared:
• IL-17A-Fc-AF647 at 5 nM • IL-17RA-HKH-Tb at 5 nM
Compounds were serially diluted in DMSO before receiving an aqueous dilution into a 384 well dilution plate (Greiner #781281), to give a 25% DMSO solution.
IL-17A (10 μL) was added to a black low volume assay plate (Costar #4511) and diluted compound (5 μL) was transferred from the aqueous dilution plate. The cytokine and compound were allowed to incubate for 1 h, then IL-17RA (10 μL) was added. The plates were wrapped in foil and incubated at room temperature for 18-20 h with gentle shaking (<400 rpm) before being read on a Perkin Elmer Envision plate reader (Excitation: 330 nm; Emission 615/645 nm).
The final assay concentrations were IL-17A-AF647 2 nM and IL-17RA-Tb 2 nM, 5% DMSO.

Work on `COC(=O)N1CC[C@@](C(=O)N2CC(F)(F)C(F)(F)C2)(c2ccc3[nH]c([C@@H](NC(=O)c4nonc4C)C4CCC(F)(F)CC4)nc3c2F)C1` (single isomer, unassigned) [Example 2] yielded a pIC50 ([1]; Incubation Time 5 h) of 8.00 and a pIC50 [2] of 7.40.

`C[C@@H](C(=O)N1CC(F)(F)C1)c1ccc2[nH]c([C@@H](NC(=O)c3ccnn3C)C3CCC(F)(F)CC3)nc2c1F` (single isomer, unassigned) [Example 22] gave a pIC50 ([1]; Incubation Time 5 h) of 6.50 and a pIC50 [2] of 6.50.

`Cc1nonc1C(=O)N[C@H](c1nc2c(F)c(C3(C(=O)N4CC(F)(F)C4)CCNCC3)ccc2[nH]1)C1CCC(F)(F)CC1` [Example 16, N—[(S)-{5-[4-(3,3-Difluoroazetidine-1-carbonyl)piperidin-4-yl]-4-fluoro-1H-benzimidazol-2-yl}(4,4-difluorocyclohexyl)methyl]-4-methyl-1,2,5-oxadiazole-3-carboxamide] was tested, and the pIC50 ([1]; Incubation Time 5 h) was 7.10 and the pIC50 [2] was 6.90.

In the case of `Cn1nccc1C(=O)N[C@H](c1nc2c(F)c(C(CC(F)(F)F)C(=O)N3CC(F)(F)C3)ccc2[nH]1)C1CCC(F)(F)CC1` (stereo partly drawn) [Example 8, N—[(S)-{5-[1-(3,3-Difluoroazetidine-1-carbonyl)-3,3,3-trifluoropropyl]-4-fluoro-1H-benzimidazol-2-yl}(4,4-difluorocyclohexyl)methyl]-2-methylpyrazole-3-carboxamide], the pIC50 ([1]; Incubation Time 5 h) was 7.60 and the pIC50 [2] was 7.00.

With `Cc1nonc1C(=O)N[C@H](c1nc2c(F)c(C(CC(F)F)C(=O)N3CC(F)(F)C3)ccc2[nH]1)C1CCC(F)(F)CC1` (mixture of isomers) [Example 3, N—[(S)-{5-[1-(3,3-Difluoroazetidine-1-carbonyl)-3,3-difluoropropyl]-4-fluoro-1H-benzimidazol-2-yl}(4,4-difluorocyclohexyl)methyl]-4-methyl-1,2,5-oxadiazole-3-carboxamide] the pIC50 ([1]; Incubation Time 5 h) was 7.60 and the pIC50 [2] was 7.60.

`COC(=O)N1CCC(C(=O)N2CC(F)(F)C2)(c2ccc3[nH]c([C@@H](NC(=O)c4nonc4C)C4CCC(F)(F)CC4)nc3c2F)CC1` [Example 17, Methyl 4-(3,3-difluoroazetidine-1-carbonyl)-4-(2-{(S)-(4,4-difluorocyclohexyl)[(4-methyl-1,2,5-oxadiazole-3-carbonyl)amino]methyl}-4-fluoro-1H-benzimidazol-5-yl)-piperidine-1-carboxylate] was tested, and the pIC50 ([1]; Incubation Time 5 h) was 7.90 and the pIC50 [2] was 7.30.

With `Cc1nonc1C(=O)N[C@H](c1nc2c(F)c([C@@H](CC(F)F)C(=O)N3CC(F)(F)C3)ccc2[nH]1)C1CCC(F)(F)CC1` (single isomer, unassigned) [Example 5] the pIC50 ([1]; Incubation Time 1 h) was 5.90 and the pIC50 [2] was 5.80.

In the case of `Cc1nonc1C(=O)N[C@H](c1nc2c(F)c(C3(C(=O)N4CC(F)(F)C4)CCC(F)(F)CC3)ccc2[nH]1)C1CCC(F)(F)CC1` [Example 23, N—[(S)-{5-[1-(3,3-Difluoroazetidine-1-carbonyl)-4,4-difluorocyclohexyl]-4-fluoro-1H-benzimidazol-2-yl}(4,4-difluorocyclohexyl)methyl]-4-methyl-1,2,5-oxadiazole-3-carboxamide], the pIC50 ([1]; Incubation Time 5 h) was 8.00 and the pIC50 [2] was 7.70.

In the case of `Cc1nonc1C(=O)N[C@H](c1nc2nc(C3(C(=O)NCC4CC4(F)F)CCOCC3)ccc2[nH]1)C1CCC(F)(F)CC1` (stereo partly drawn) [Example 24, N—[(S)-(4,4-Difluorocyclohexyl)(5-{4-[(2,2-difluorocyclopropyl)methylcarbamoyl]-tetrahydropyran-4-yl}-1H-imidazo[4,5-b]pyridin-2-yl)methyl]-4-methyl-1,2,5-oxadiazole-3-carboxamide], the pIC50 ([1]; Incubation Time 5 h) was 8.20 and the pIC50 [2] was 7.60.

`Cn1nccc1C(=O)N[C@H](c1nc2c(F)c(C(CC(F)F)C(=O)N3CC(F)(F)C3)ccc2[nH]1)C1CCC(F)(F)CC1` (stereo partly drawn) [Example 6, N—[(S)-{5-[1-(3,3-Difluoroazetidine-1-carbonyl)-3,3-difluoropropyl]-4-fluoro-1H-benzimidazol-2-yl}(4,4-difluorocyclohexyl)methyl]-2-methylpyrazole-3-carboxamide] showed a pIC50 ([1]; Incubation Time 5 h) of 7.60 and a pIC50 [2] of 7.10.

Work on `COC(=O)N1CC[C@](C(=O)N2CC(F)(F)C(F)(F)C2)(c2ccc3[nH]c([C@@H](NC(=O)c4nonc4C)C4CCC(F)(F)CC4)nc3c2F)C1` (single isomer, unassigned) [Example 1] yielded a pIC50 ([1]; Incubation Time 5 h) of 8.20 and a pIC50 [2] of 7.40.

`CC(C(=O)N1CC(F)(F)C1)c1ccc2[nH]c([C@@H](NC(=O)c3ccnn3C)C3CCC(F)(F)CC3)nc2c1F` (mixture of isomers) [Example 20, N—[(S)-{5-[2-(3,3-Difluoroazetidin-1-yl)-1-methyl-2-oxoethyl]-4-fluoro-1H-benzimidazol-2-yl}(4,4-difluorocyclohexyl)methyl]-2-methylpyrazole-3-carboxamide] was tested, and the pIC50 ([1]; Incubation Time 5 h) was 7.70 and the pIC50 [2] was 7.00.

Compound `Cc1nonc1C(=O)N[C@H](c1nc2c(F)c([C@H](CC(F)F)C(=O)N3CC(F)(F)C3)ccc2[nH]1)C1CCC(F)(F)CC1` (single isomer, unassigned) [Example 4] has a pIC50 ([1]; Incubation Time 5 h) of 7.80 and a pIC50 [2] of 7.40.

`Cc1nonc1C(=O)N[C@H](c1nc2c(F)c(C(CC(F)(F)F)C(=O)N3CC(F)(F)C3)ccc2[nH]1)C1CCC(F)(F)CC1` (stereo partly drawn) [Example 7, N—[(S)-{5-[1-(3,3-Difluoroazetidine-1-carbonyl)-3,3,3-trifluoropropyl]-4-fluoro-1H-benzimidazol-2-yl}(4,4-difluorocyclohexyl)methyl]-4-methyl-1,2,5-oxadiazole-3-carboxamide] gave a pIC50 ([1]; Incubation Time 5 h) of 7.80 and a pIC50 [2] of 7.80.

For `[2H]C([2H])([2H])n1nccc1C(=O)N[C@H](c1nc2c(F)c(C3(C(=O)N4CC(F)(F)C4)CC(F)(F)C3)ccc2[nH]1)C1CCC(F)(F)CC1` [Example 18, N—[(S)-{5-[1-(3,3-Difluoroazetidine-1-carbonyl)-3,3-difluorocyclobutyl]-4-fluoro-1H-benzimidazol-2-yl}(4,4-difluorocyclohexyl)methyl]-2-(trideuteriomethyl)pyrazole-3-carboxamide], the pIC50 ([1]; Incubation Time 1 h) was 7.10 and the pIC50 [2] was 6.80.

Work on `Cc1nonc1C(=O)N[C@H](c1nc2c(F)c(C3(C(=O)N4CC(F)(F)C(F)(F)C4)CCOCC3)ccc2[nH]1)C1CCC(F)(F)CC1` [Example 19, N—[(S)-(4,4-Difluorocyclohexyl){4-fluoro-5-[4-(3,3,4,4-tetrafluoropyrrolidine-1-carbonyl)tetrahydropyran-4-yl]-1H-benzimidazol-2-yl}methyl]-4-methyl-1,2,5-oxadiazole-3-carboxamide] yielded a pIC50 ([1]; Incubation Time 5 h) of 8.40 and a pIC50 [2] of 7.90.

`C[C@H](C(=O)N1CC(F)(F)C1)c1ccc2[nH]c([C@@H](NC(=O)c3ccnn3C)C3CCC(F)(F)CC3)nc2c1F` (single isomer, unassigned) [Example 21] was tested, and the pIC50 ([1]; Incubation Time 5 h) was 7.80 and the pIC50 [2] was 7.60.
